# Target: CDK2/Cyclin E1 (Homo sapiens (Human), UniProt P24941)
# Assay: CDK2/Cyclin E1 HTRF enzyme activity assay
# Format: biochemical
# Conditions: 1 mM ATP
# Description: Assays are conducted in white 384-well polystyrene plates in a final reaction volume of 8 μL. […] HTRF signals are read after 1 hour at room temperature on a PHERAstar FS plate reader (BMG Labtech). Data is analyzed with IDBS XLFit and GraphPad Prism 5.0 software using a three or four parameter dose response curve to determine IC50 for each compound.
row,IC50 [nM],SMILES
1,< 50,"Cc1nc(CN2CCN(C(C)C)CC2)ccc1-n1cc(-c2nc(NC3CCN(S(=O)(=O)c4cn(C)cn4)CC3)ncc2Cl)cn1 [Example 251, 5-Chloro-4-(1-(6-((4-isopropylpiperazin-1-yl)methyl)-2-methylpyridin-3-yl)-1H-pyrazol-4-yl)-N-(1-((1-methyl-1H-imidazol-4-yl)sulfonyl)piperidin-4-yl)pyrimidin-2-amine]"
2,< 50,"CCN(CC)CCCS(=O)(=O)N1CCC(Nc2ncc(C#N)c(-c3cnn(CC(C)(C)O)c3)n2)CC1 [Example 213, 2-((1-((3-(Diethylamino)propyl)sulfonyl)piperidin-4-yl)amino)-4-(1-(2-hydroxy-2-methylpropyl)-1H-pyrazol-4-yl)pyrimidine-5-carbonitrile]"
3,< 50,"[2H]C([2H])([2H])NCc1ccc(-n2cc(-c3nc(NC4CCN(S(=O)(=O)CC)CC4)ncc3C(F)(F)F)cn2)c(C)c1 [Example 129, N-(1-(Ethylsulfonyl)piperidin-4-yl)-4-(1-(2-methyl-4-(((methyl-d3)amino)methyl)phenyl)-1H-pyrazol-4-yl)-5-(trifluoromethyl)pyrimidin-2-amine]"
4,< 50,"CCN(CC)C1CCC(S(=O)(=O)N2CCC(Nc3ncc(C(F)(F)F)c(-c4cnn(CC(C)(C)O)c4)n3)CC2)CC1 (single isomer, unassigned) [89 (peak 1), 1-(4-(2-((1-((4-(Diethylamino)cyclohexyl)sulfonyl)piperidin-4-yl)amino)-5-(trifluoromethyl)pyrimidin-4-yl)-1H-pyrazol-1-yl)-2-methylpropan-2-ol]"
5,< 50,"CS(=O)(=O)N1CCC(Nc2ncc(C#N)c(-c3cnn(-c4ccc(CNC5CCC(C#N)CC5)cc4Cl)c3)n2)CC1 (stereo not shown) [Example 183, 4-(1-(2-Chloro-4-(((4-cyanocyclohexyl)amino)methyl)phenyl)-1H-pyrazol-4-yl)-2-((1-(methylsulfonyl)piperidin-4-yl)amino)pyrimidine-5-carbonitrile]"
6,< 50,"CCN1CCN(Cc2ccc(-n3cc(-c4nc(NC5CCN(S(C)(=O)=O)CC5)ncc4C#N)cn3)c(Cl)c2)CC1 [Example 238, 4-(1-(2-Chloro-4-((4-ethylpiperazin-1-yl)methyl)phenyl)-1H-pyrazol-4-yl)-2-((1-(methylsulfonyl)piperidin-4-yl)amino)pyrimidine-5-carbonitrile]"
7,< 50,"CNCc1ccc(-n2cc(-c3nc(NC4CCN(S(=O)(=O)c5cn(C)cn5)CC4)ncc3Cl)cn2)c(C)n1 [Example 266, 5-Chloro-N-(1-((1-methyl-1H-imidazol-4-yl)sulfonyl)piperidin-4-yl)-4-(1-(2-methyl-6-((methylamino)methyl)pyridin-3-yl)-1H-pyrazol-4-yl)pyrimidin-2-amine]"
8,< 50,"Cc1nc(CNC(C)C)ccc1-n1cc(-c2nc(NC3CCN(S(=O)(=O)c4cn(C)cn4)CC3)ncc2C#N)cn1 [Example 151, 4-(1-(6-((Isopropylamino)methyl)-2-methylpyridin-3-yl)-1H-pyrazol-4-yl)-2-((1-((1-methyl-1H-imidazol-4-yl)sulfonyl)piperidin-4-yl)amino)pyrimidine-5-carbonitrile]"
9,< 50,"CC(C)(O)Cn1cc(-c2nc(NC3CCN(S(=O)(=O)C4CCC(N5CCCC5)CC4)CC3)ncc2C(F)(F)F)cn1 (single isomer, unassigned) [91 (peak 2), 2-Methyl-1-(4-(2-((1-((4-(pyrrolidin-1-yl)cyclohexyl)sulfonyl)piperidin-4-yl)amino)-5-(trifluoromethyl)pyrimidin-4-yl)-1H-pyrazol-1-yl)propan-2-ol]"
10,< 50,"Cc1nc(CNC(C)(C)C(N)=O)ccc1-n1cc(-c2nc(NC3CCN(S(C)(=O)=O)CC3)ncc2C#N)cn1 [Example 264, 2-(((5-(4-(5-Cyano-2-((1-(methylsulfonyl)piperidin-4-yl)amino)pyrimidin-4-yl)-1H-pyrazol-1-yl)-6-methylpyridin-2-yl)methyl)amino)-2-methylpropanamide]"
11,< 50,"[2H]C([2H])([2H])NCc1ccc(-n2cc(-c3nc(NC4CCN(S(C)(=O)=O)CC4)ncc3C(F)(F)F)cn2)c(C)c1 [Example 128, 4-(1-(2-Methyl-4-(((methyl-d3)amino)methyl)phenyl)-1H-pyrazol-4-yl)-N-(1-(methylsulfonyl)piperidin-4-yl)-5-(trifluoromethyl)pyrimidin-2-amine]"
12,< 50,"COC(=O)NC1CCCCC1NCc1ccc(-n2cc(-c3nc(NC4CCN(S(C)(=O)=O)CC4)ncc3C#N)cn2)c(Cl)c1 (stereo not shown) [Example 166, Methyl (2-((3-chloro-4-(4-(5-cyano-2-((1-(methylsulfonyl)piperidin-4-yl)amino)pyrimidin-4-yl)-1H-pyrazol-1-yl)benzyl)amino)cyclohexyl)carbamate]"
13,< 50,"[2H]C([2H])([2H])NCc1ccc(-n2cc(-c3nc(N[C@H]4CCN(S(=O)(=O)C5CC5)C[C@H]4C)ncc3C#N)cn2)c(Cl)c1 [Example 146, 4-(1-(2-Chloro-4-(((methyl-d3)amino)methyl)phenyl)-1H-pyrazol-4-yl)-2-(((3R,4S)-1-(cyclopropylsulfonyl)-3-methylpiperidin-4-yl)amino)pyrimidine-5-carbonitrile]"
14,< 50,"CS(=O)(=O)N1CCC(Nc2ncc(C#N)c(-c3cnn(-c4ccc(CNCCOC(F)(F)F)cc4Cl)c3)n2)CC1 [Example 199, 4-(1-(2-Chloro-4-(((2-(trifluoromethoxy)ethyl)amino)methyl)phenyl)-1H-pyrazol-4-yl)-2-((1-(methylsulfonyl)piperidin-4-yl)amino)pyrimidine-5-carbonitrile]"
15,< 50,"CC(C)(O)Cn1cc(-c2nc(NC3CCN(S(=O)(=O)CCCCN4CCCCC4)CC3)ncc2C(F)(F)F)cn1 [Example 81, 2-Methyl-1-(4-(2-((1-((4-(piperidin-1-yl)butyl)sulfonyl)piperidin-4-yl)amino)-5-(trifluoromethyl)pyrimidin-4-yl)-1H-pyrazol-1-yl)propan-2-ol]"
16,< 50,"Cc1cc(CN2CCOCC2)ccc1-n1cc(-c2nc(NC3CCN(S(=O)(=O)c4cn(C)cn4)CC3)ncc2C(F)(F)F)cn1 [Example 107, N-(1-((1-Methyl-1H-imidazol-4-yl)sulfonyl)piperidin-4-yl)-4-(1-(2-methyl-4-(morpholinomethyl)phenyl)-1H-pyrazol-4-yl)-5-(trifluoromethyl)pyrimidin-2-amine]"
17,< 50,"Cc1cc(CN2CCN(CC3CC3)CC2)ccc1-n1cc(-c2nc(NC3CCN(S(=O)(=O)c4cn(C)cn4)CC3)ncc2Cl)cn1 [Example 246, 5-Chloro-4-(1-(4-((4-(cyclopropylmethyl)piperazin-1-yl)methyl)-2-methylphenyl)-1H-pyrazol-4-yl)-N-(1-((1-methyl-1H-imidazol-4-yl)sulfonyl)piperidin-4-yl)pyrimidin-2-amine]"
18,< 50,"Cc1cc(CN2CCN(C)C(=O)C2)ccc1-n1cc(-c2nc(NC3CCN(S(=O)(=O)c4cn(C)cn4)CC3)ncc2C(F)(F)F)cn1 [Example 237, 1-Methyl-4-(3-methyl-4-(4-(2-((1-((1-methyl-1H-imidazol-4-yl)sulfonyl)piperidin-4-yl)amino)-5-(trifluoromethyl)pyrimidin-4-yl)-1H-pyrazol-1-yl)benzyl)piperazin-2-one]"
19,< 50,"CN1C[C@@H]2C[C@H]1CN2CCCS(=O)(=O)N1CC[C@H](Nc2ncc(C(F)(F)F)c(-c3cnn(CC(C)(C)O)c3)n2)[C@H](F)C1 [Example 211, 1-(4-(2-(((3R,4S)-3-Fluoro-1-((3-((1S,4S)-5-methyl-2,5-diazabicyclo[2.2.1]heptan-2-yl)propyl)sulfonyl)piperidin-4-yl)amino)-5-(trifluoromethyl)pyrimidin-4-yl)-1H-pyrazol-1-yl)-2-methylpropan-2-ol]"
20,< 50,"CCN(CC)CCCCS(=O)(=O)N1CCC(Nc2ncc(C#N)c(-c3cnn(CC(C)(C)O)c3)n2)CC1 [Example 216, 2-((1-((4-(Diethylamino)butyl)sulfonyl)piperidin-4-yl)amino)-4-(1-(2-hydroxy-2-methylpropyl)-1H-pyrazol-4-yl)pyrimidine-5-carbonitrile]"
21,< 50,"C[C@H]1COCCN1CCCS(=O)(=O)N1CCC(Nc2ncc(C(F)(F)F)c(-c3cnn(CC(C)(C)O)c3)n2)CC1 [Example 71, (S)-2-Methyl-1-(4-(2-((1-((3-(3-methylmorpholino)propyl)sulfonyl)piperidin-4-yl)amino)-5-(trifluoromethyl)pyrimidin-4-yl)-1H-pyrazol-1-yl)propan-2-ol]"
22,< 50,"CC(C)(O)CCS(=O)(=O)N1CCC(Nc2ncc(C(F)(F)F)c(-c3cnn(CC(C)(C)O)c3)n2)CC1 [Example 94, 4-((4-((4-(1-(2-Hydroxy-2-methylpropyl)-1H-pyrazol-4-yl)-5-(trifluoromethyl)pyrimidin-2-yl)amino)piperidin-1-yl)sulfonyl)-2-methylbutan-2-ol]"
23,< 50,"CCS(=O)(=O)N1CCC(Nc2ncc(C(F)(F)F)c(-c3cnn(-c4ccc(CN5CCN(C)CC5)cc4C)c3)n2)CC1 [Example 233, N-(1-(Ethylsulfonyl)piperidin-4-yl)-4-(1-(2-methyl-4-((4-methylpiperazin-1-yl)methyl)phenyl)-1H-pyrazol-4-yl)-5-(trifluoromethyl)pyrimidin-2-amine]"
24,< 50,"CCN1CCN(Cc2ccc(-n3cc(-c4nc(NC5CCN(S(=O)(=O)c6cn(C)cn6)CC5)ncc4C#N)cn3)c(Cl)c2)CC1 [Example 241, 4-(1-(2-Chloro-4-((4-ethylpiperazin-1-yl)methyl)phenyl)-1H-pyrazol-4-yl)-2-((1-((1-methyl-1H-imidazol-4-yl)sulfonyl)piperidin-4-yl)amino)pyrimidine-5-carbonitrile]"
25,< 50,"Cc1cc(CN2CCN(CC3CC3)CC2)ccc1-n1cc(-c2nc(NC3CCN(S(=O)(=O)c4cn(C)cn4)CC3)ncc2C(F)(F)F)cn1 [Example 236, 4-(1-(4-((4-(Cyclopropylmethyl)piperazin-1-yl)methyl)-2-methylphenyl)-1H-pyrazol-4-yl)-N-(1-((1-methyl-1H-imidazol-4-yl)sulfonyl)piperidin-4-yl)-5-(trifluoromethyl)pyrimidin-2-amine]"

# Source: patent US11472791B2 (Incyte Corporation, priority 2019, dated 2022)
